Patent US20250009819A1, “NOVEL PROBIOTICS AND USE THEREOF” (PBLBIOLAB CO., LTD., priority 2021, published 2025)

Experiments:
BDNF = BDNF expression in SH-SY5Y cells; assay type: cell-based; conditions: LPS 200 ng/ml; lactic acid bacteria 1×10^4 CFU/ml; 24 h
Method: (§1) SH-SY5Y cells obtained from the Korean Cell Line Bank were cultured in DMEM medium supplemented with 10% FBS and 1% antibiotics, and dispensed at 2×10^6 cells per well in a 12-well plate. Then, LPS (200 ng/ml) was added to each well along with lactic acid bacteria (1×10^4 CFU/ml) and incubated for 24 h. The cells and supernatants were collected, sonicated and centrifuged, and the amount of BDNF in the supernatant was measured by ELISA kit.

[1] = Antioxidant activity (DPPH, in vitro); assay type: biochemical; conditions: DPPH 0.2 mM; lactic acid bacteria suspension 1×10^8 CFU/ml; 37° C. 20 min
Method: DPPH (2,2-Diphenyl-1-picrylhydrazyl) was dissolved in ethanol to a concentration of 0.2 mM to prepare DPPH solution. Lactic acid bacteria suspension (1×10^8 CFU/ml) or vitamin C solution (1 g/ml) was added to 0.1 ml of the above DPPH solution and incubated at 37° C. for 20 min. The culture was centrifuged at 3000 rpm for 5 min to obtain a supernatant. The absorbance of the supernatant was then measured at 517 nm and the antioxidant activity of the lactic acid bacteria was calculated.

TNF-α = TNF-α expression in LPS-treated macrophages (ELISA); assay type: cell-based, C57BL/6 mice; conditions: macrophages treated with lactic acid bacteria and LPS for 24 hours
Method: (§2) C57BL/6 mice (male, 6 weeks old, 20-23 g) were subjected to an intraperitoneal injection of 2 ml of sterile 4% thioglycolate solution, and after 96 hours, the mice were anesthetized and injected with 8 ml of RPMI 1640 medium through the peritoneal cavity. Then, after 5-10 minutes, the RPMI medium (macrophages) in the mouse peritoneal cavity was extracted, centrifuged at 1000 g for 10 minutes, and washed again with RPMI 1640 medium twice. Macrophages were seeded in 24-well plates at a count of 0.5×10^6 in each well, and treated with lactic acid bacteria and LPS, an inflammatory response-inducing substance, for 24 hours. TNF-α and IL-10 cytokine expression amount in the culture supernatant was then measured by ELISA Kit.

IL-10 = IL-10 expression in LPS-treated macrophages (ELISA); assay type: cell-based, C57BL/6 mice; conditions: macrophages treated with lactic acid bacteria and LPS for 24 hours
Method: as §2

Clostridium difficile = Clostridium difficile proliferation in gut microbiota (PCR); assay type: cell-based; conditions: human feces culture; lactic acid bacteria 1×10^6 CFU/mL; anaerobic 24 hr
Method: Fresh human feces were suspended in anaerobic medium (GAM, Nissui Pharmaceutical Co., Ltd., Japan) and allowed to stand for 10 min. The supernatant was diluted with 10,000-fold anaerobic medium, 0.05 mL of the dilution was transplanted into 5 mL of freshly made anaerobic medium, and lactic acid bacteria (1×10^6 CFU/mL) were implanted and incubated anaerobically for 24 hr. This culture medium was divided into two, one was centrifuged (5000 rpm, 20 minutes), the precipitated DNA was isolated using the QIAamp DNA stool mini kit (Qiagen, Germany), and Clostridium difficile (primer: forward, 5′-[…]-3′ (SEQ ID NO: 4); reverse, 5′-[…]-3′ (SEQ ID NO: 5) was quantified by PCR. The reaction product was first treated at 95° C. for 30 seconds, followed by 42 cycles of 5 seconds at 95° C. and 30 seconds at 72° C. for analysis. In addition, one culture medium was sonicated, centrifuged, and filter-sterilized, and the amount of LPS in the supernatant was measured using an ELISA kit.

Neuropeptide Y (NPY) = Neuropeptide Y (NPY) expression in PC12 phaeochromocytoma cells; assay type: cell-based; conditions: LPS 200 ng/ml; lactic acid bacteria 1×10^4 CFU/ml; 24 hr
Method: as §1, with “PC12” for “SH-SY5Y”, “1×10^6” for “2×10^6”, “hr.” for “h.”, “NPY” for “BDNF”

gut microbiota = test: LPS production in gut microbiota (ELISA); assay type: cell-based; conditions: human feces culture; lactic acid bacteria 1×10^6 CFU/mL; anaerobic 24 hr
Method: Fresh human feces were suspended in anaerobic medium (GAM, Nissui Pharmaceutical Co., Ltd., Japan) and allowed to stand for 10 min. The supernatant was diluted with 10,000-fold anaerobic medium, 0.05 mL of the dilution was transplanted into 5 mL of freshly made anaerobic medium, and lactic acid bacteria (1×10^6 CFU/mL) were implanted and incubated anaerobically for 24 hr.

| Substance | SHSY5Y cell Induction of BDNF expression (BDNF) | Antioxidant activity [1] | Macrophage Inhibition of TNF-α expression (TNF-α) | Macrophage Induction of IL-10 expression (IL-10) | Gut microbiota Inhibition of difficile bacteria proliferation (Clostridium difficile) | PC12 cell Induction of NPY expression (Neuropeptide Y (NPY)) | Gut microbiota Inhibition of LPS production (gut microbiota) |
| --- | --- | --- | --- | --- | --- | --- | --- |
| Bifidobacterium longum NK216 | − (not or less than 20% (−; <20%)) | ++ (strongly (++; >60-90%)) | − (not or less than 20% (−; <20%)) | − (not or less than 20% (−; <20%)) | − (not or less than 20% (−; <20%)) | + (weakly (+; >20-60%)) | ++ (strongly (++; >60-90%)) |
| Lactobacillus plantarum NK183 | − (not or less than 20% (−; <20%)) | + (weakly (+; >20-60%)) | + (weakly (+; >20-60%)) | − (not or less than 20% (−; <20%)) | + (weakly (+; >20-60%)) | − (not or less than 20% (−; <20%)) | + (weakly (+; >20-60%)) |
| Lactobacillus plantarum NK182 | − (not or less than 20% (−; <20%)) | ++ (strongly (++; >60-90%)) | − (not or less than 20% (−; <20%)) | − (not or less than 20% (−; <20%)) | ++ (strongly (++; >60-90%)) | − (not or less than 20% (−; <20%)) | − (not or less than 20% (−; <20%)) |
| Bifidobacterium pseudocatenulatum NK228 | + (weakly (+; >20-60%)) | + (weakly (+; >20-60%)) | − (not or less than 20% (−; <20%)) | − (not or less than 20% (−; <20%)) | − (not or less than 20% (−; <20%)) | + (weakly (+; >20-60%)) | ++ (strongly (++; >60-90%)) |
| Lactobacillus mucosae NK204 | − (not or less than 20% (−; <20%)) | + (weakly (+; >20-60%)) | − (not or less than 20% (−; <20%)) | − (not or less than 20% (−; <20%)) | + (weakly (+; >20-60%)) | − (not or less than 20% (−; <20%)) | − (not or less than 20% (−; <20%)) |
| Lactobacillus casei NK195 | − (not or less than 20% (−; <20%)) | + (weakly (+; >20-60%)) | + (weakly (+; >20-60%)) | + (weakly (+; >20-60%)) | + (weakly (+; >20-60%)) | − (not or less than 20% (−; <20%)) | − (not or less than 20% (−; <20%)) |
| Lactococcus lactis NK208 | + (weakly (+; >20-60%)) | − (not or less than 20% (−; <20%)) | − (not or less than 20% (−; <20%)) | − (not or less than 20% (−; <20%)) | + (weakly (+; >20-60%)) | + (weakly (+; >20-60%)) | + (weakly (+; >20-60%)) |
| Lactobacillus reuteri NK200 | + (weakly (+; >20-60%)) | + (weakly (+; >20-60%)) | − (not or less than 20% (−; <20%)) | − (not or less than 20% (−; <20%)) | + (weakly (+; >20-60%)) | + (weakly (+; >20-60%)) | + (weakly (+; >20-60%)) |
| Lactobacillus gasseri NK185 | − (not or less than 20% (−; <20%)) | ++ (strongly (++; >60-90%)) | + (weakly (+; >20-60%)) | + (weakly (+; >20-60%)) | + (weakly (+; >20-60%)) | + (weakly (+; >20-60%)) | − (not or less than 20% (−; <20%)) |
| Lactobacillus gasseri NK186 | − (not or less than 20% (−; <20%)) | + (weakly (+; >20-60%)) | + (weakly (+; >20-60%)) | + (weakly (+; >20-60%)) | + (weakly (+; >20-60%)) | − (not or less than 20% (−; <20%)) | + (weakly (+; >20-60%)) |
| Lactobacillus rhamnosus NK211 | − (not or less than 20% (−; <20%)) | + (weakly (+; >20-60%)) | + (weakly (+; >20-60%)) | + (weakly (+; >20-60%)) | + (weakly (+; >20-60%)) | − (not or less than 20% (−; <20%)) | − (not or less than 20% (−; <20%)) |
| Lactobacillus casei NK193 | + (weakly (+; >20-60%)) | + (weakly (+; >20-60%)) | + (weakly (+; >20-60%)) | + (weakly (+; >20-60%)) | − (not or less than 20% (−; <20%)) | − (not or less than 20% (−; <20%)) | + (weakly (+; >20-60%)) |
| Bifidobacterium catenulatum NK226 | + (weakly (+; >20-60%)) | + (weakly (+; >20-60%)) | − (not or less than 20% (−; <20%)) | − (not or less than 20% (−; <20%)) | + (weakly (+; >20-60%)) | − (not or less than 20% (−; <20%)) | − (not or less than 20% (−; <20%)) |
| Bifidobacterium infantis NK215 | − (not or less than 20% (−; <20%)) | ++ (strongly (++; >60-90%)) | + (weakly (+; >20-60%)) | + (weakly (+; >20-60%)) | + (weakly (+; >20-60%)) | + (weakly (+; >20-60%)) | + (weakly (+; >20-60%)) |
| Lactobacillus johnsonii NK203 | − (not or less than 20% (−; <20%)) | + (weakly (+; >20-60%)) | + (weakly (+; >20-60%)) | + (weakly (+; >20-60%)) | − (not or less than 20% (−; <20%)) | − (not or less than 20% (−; <20%)) | − (not or less than 20% (−; <20%)) |
